Reference: patent US10246461B2, “Dosage form compositions comprising an inhibitor of bruton's tyrosine kinase” (Genentech, Inc., priority 2016, dated 2019)
In brackets after ≈: the same amount, converted by molar mass. Read-outs that look alike come from different tables or passages of the source.

What was measured:
[1] = Solubility of compound (I) free base in buffers of varying pH, FeSSIF and FaSSIF; type: physicochemical
[2] = Human PK, second comparative study: single dose food and PPI assessment of 100 mg powder-in-capsule (Panels J-M); type: in vivo; conditions: 100 mg PIC single dose
Description: The protocol is detailed Table 24 below wherein each panel contained 10 human subjects.

[3] = Dissolution of compound (I) mesylate salt vs free base in pH 4.5 aqueous media; type: physicochemical; conditions: 100 mg in 2 mL pH 4.5 aqueous media, 37° C.
[4] = Two-stage non-sink dissolution assay (kinetic solubility) of ASD formulations and unformulated API: simulated gastric media then FaSSIF; type: physicochemical; conditions: pH 1 gastric media, dosed concentration of about 2000 ug/mL
Protocol: The assay was performed in a modified USP II apparatus (paddles). The experiment measured the total drug dissolved in the presence of excess solid API (non-sink conditions), which included a combination of ‘free’ and colloidal or polymer-bound drug in solution. In some evaluations—to simulate the relatively high pH gastric environment in patients taking proton pump inhibitors—different simulated gastric media were used to begin the two-stage experiment: either pH 1 (HCl buffer) or pH 4 or 5 (acetate buffers) at a nominal compound (I) concentration of 2.0 mg/mL. In some other experiments, acetate buffer was replaced with a dilute HCl solution at similar pH, to better mimic the expected in vivo environment. After 30 minutes, the test material was transferred to fasted-state simulated intestinal fluid (FaSSIF) media consisting of physiologically relevant bile salts (SIF Powder, Biorelevant Inc.) in 100 mM phosphate buffer, and the compound (I) concentration was diluted to 1.0 mg/mL. pH of the phosphate buffer was adjusted as needed to obtain a simulated intestinal pH of 6.8±0.1 in the second stage of the dissolution experiment. The test material was sampled periodically throughout the test and samples were centrifuged at 13,000 r/min. The supernatant was diluted 1:1 with sample diluent and the compound (I) concentration was measured by HPLC. […]

[5] = Panel K: high fat breakfast, no PPI
[6] = Panel L: fasted + rabeprazole 20 mg BID
[7] = Panel M: high fat breakfast + rabeprazole 20 mg BID

## CC1CN(C2COC2)CCN1c1ccc(Nc2cc(-c3ccnc(N4CCn5c(cc6c5CC(C)(C)C6)C4=O)c3CO)cn(C)c2=O)nc1 [Compound (A), (R)-2-(3′-(hydroxymethyl)-1-methyl-5-((5-(2-methyl-4-(oxetan-3-yl)piperazin-1-yl)pyridin-2-yl)amino)-6-oxo-1,6-dihydro-[3,4′-bipyridin]-2′-yl)-7,7-dimethyl-2,3,4,6,7,8-hexahydro-1H-cyclopenta[4,5]pyrrolo[1,2-a]pyrazin-1-one]
[1]; aqueous buffer, pH 2.6, aqueous buffer, read-out: aqueous solubility
  solubility: ~6500 µg/mL (≈ 9780 µM)
[1]; aqueous buffer, pH 5.0, read-out: solubility
  solubility: ~1 µg/mL (≈ 1.5 µM)

## C[C@H]1CN(C2COC2)CCN1c1ccc(Nc2cc(-c3ccnc(N4CCn5c(cc6c5CC(C)(C)C6)C4=O)c3CO)cn(C)c2=O)nc1 [Compound (I) free base, (S)-2-(3′-(hydroxymethyl)-1-methyl-5-((5-(2-methyl-4-(oxetan-3-yl)piperazin-1-yl)pyridin-2-yl)amino)-6-oxo-1,6-dihydro-[3,4′-bipyridin]-2′-yl)-7,7-dimethyl-2,3,4,6,7,8-hexahydro-1H-cyclopenta[4,5]pyrrolo[1,2-a]pyrazin-1-one]
[2]; Panel J: fasted, no PPI
  plasma AUCinf, Mean: 1.073 µM·h
  plasma HL-Lambda-z, Mean: 16 h
  plasma HL-Lambda-z, Median: 13 h
[2]; [5]
  plasma AUCinf, Mean: 1.701 µM·h
  plasma HL-Lambda-z, Mean: 9.82 h
  plasma HL-Lambda-z, Median: 9.7 h
[2]; [6]
  plasma HL-Lambda-z, Mean: 12.8 h
  plasma HL-Lambda-z, Median: 11 h
[2]; [7]
  plasma HL-Lambda-z, Mean: 13.4 h
  plasma HL-Lambda-z, Median: 12 h
[2]; Panel M: high fat breakfast + rabeprazole 20 mg BID, read-out: plasma Cmax, Mean
  Cmax: 41 nM
[2]; plasma, oral, Panel L: fasted + rabeprazole 20 mg BID, read-out: plasma AUC0-24, Mean
  AUC(0-t): 0.157 µM·h
[2]; plasma, oral, Panel L: fasted + rabeprazole 20 mg BID, read-out: plasma AUC0-24, Median
  AUC(0-t): 0.16 µM·h
[2]; plasma, oral, Panel L: fasted + rabeprazole 20 mg BID, read-out: plasma AUCinf, Mean
  AUC(0-inf): 0.274 µM·h
[2]; plasma, oral, Panel L: fasted + rabeprazole 20 mg BID, read-out: plasma AUCinf, Median
  AUC(0-inf): 0.27 µM·h
[2]; plasma, oral, Panel L: fasted + rabeprazole 20 mg BID, read-out: plasma AUClast, Mean
  AUC(0-t): 0.261 µM·h
[2]; plasma, oral, Panel L: fasted + rabeprazole 20 mg BID, read-out: plasma AUClast, Median
  AUC(0-t): 0.27 µM·h
[2]; plasma, oral, Panel L: fasted + rabeprazole 20 mg BID, read-out: plasma Cmax, Mean
  Cmax: 11.6 nM
[2]; plasma, oral, Panel L: fasted + rabeprazole 20 mg BID, read-out: plasma Cmax, Median
  Cmax: 12 nM
[2]; plasma, oral, Panel L: fasted + rabeprazole 20 mg BID, read-out: plasma Tmax, Mean
  Tmax: 5.7 h
[2]; plasma, oral, Panel L: fasted + rabeprazole 20 mg BID, read-out: plasma Tmax, Median
  Tmax: 4 h
[2]; plasma, oral, Panel M: high fat breakfast + rabeprazole 20 mg BID, read-out: plasma AUC0-24, Mean
  AUC(0-t): 0.471 µM·h
[2]; plasma, oral, Panel M: high fat breakfast + rabeprazole 20 mg BID, read-out: plasma AUC0-24, Median
  AUC(0-t): 0.52 µM·h
[2]; plasma, oral, Panel M: high fat breakfast + rabeprazole 20 mg BID, read-out: plasma AUCinf, Mean
  AUC(0-inf): 0.657 µM·h
[2]; plasma, oral, Panel M: high fat breakfast + rabeprazole 20 mg BID, read-out: plasma AUCinf, Median
  AUC(0-inf): 0.67 µM·h
[2]; plasma, oral, Panel M: high fat breakfast + rabeprazole 20 mg BID, read-out: plasma AUClast, Mean
  AUC(0-t): 0.642 µM·h
[2]; plasma, oral, Panel M: high fat breakfast + rabeprazole 20 mg BID, read-out: plasma AUClast, Median
  AUC(0-t): 0.66 µM·h
[2]; plasma, oral, Panel M: high fat breakfast + rabeprazole 20 mg BID, read-out: plasma Cmax, Mean
  Cmax: 40.6 nM
[2]; plasma, oral, Panel M: high fat breakfast + rabeprazole 20 mg BID, read-out: plasma Cmax, Median
  Cmax: 40 nM
[2]; plasma, oral, Panel M: high fat breakfast + rabeprazole 20 mg BID, read-out: plasma Tmax, Mean
  Tmax: 6.9 h
[2]; plasma, oral, Panel M: high fat breakfast + rabeprazole 20 mg BID, read-out: plasma Tmax, Median
  Tmax: 7 h
[2]; plasma, oral, 100 mg, Panel J: fasted, no PPI, read-out: plasma AUC0-24, Mean
  AUC(0-t): 0.967 µM·h
[2]; plasma, oral, 100 mg, Panel J: fasted, no PPI, read-out: plasma AUC0-24, Median
  AUC(0-t): 0.98 µM·h
[2]; plasma, oral, 100 mg, Panel J: fasted, no PPI, read-out: plasma AUCinf, Mean
  AUC(0-inf): 1.07 µM·h
[2]; plasma, oral, 100 mg, Panel J: fasted, no PPI, read-out: plasma AUCinf, Median
  AUC(0-inf): 1.1 µM·h
[2]; plasma, oral, 100 mg, Panel J: fasted, no PPI, read-out: plasma AUClast, Mean
  AUC(0-t): 1.06 µM·h
[2]; plasma, oral, 100 mg, Panel J: fasted, no PPI, read-out: plasma AUClast, Median
  AUC(0-t): 1 µM·h
[2]; plasma, oral, 100 mg, Panel J: fasted, no PPI, read-out: plasma Cmax, Mean
  Cmax: 218 nM
[2]; plasma, oral, 100 mg, Panel J: fasted, no PPI, read-out: plasma Cmax, Median
  Cmax: 200 nM
[2]; plasma, oral, 100 mg, Panel J: fasted, no PPI, read-out: plasma Tmax, Mean
  Tmax: 1.5 h
[2]; plasma, oral, 100 mg, Panel J: fasted, no PPI, read-out: plasma Tmax, Median
  Tmax: 1.5 h
[2]; plasma, oral, 100 mg, Panel K: high fat breakfast, no PPI, read-out: plasma AUC0-24, Mean
  AUC(0-t): 1.56 µM·h
[2]; plasma, oral, 100 mg, Panel K: high fat breakfast, no PPI, read-out: plasma AUC0-24, Median
  AUC(0-t): 1.5 µM·h
[2]; plasma, oral, 100 mg, Panel K: high fat breakfast, no PPI, read-out: plasma AUCinf, Mean
  AUC(0-inf): 1.7 µM·h
[2]; plasma, oral, 100 mg, Panel K: high fat breakfast, no PPI, read-out: plasma AUCinf, Median
  AUC(0-inf): 1.6 µM·h
[2]; plasma, oral, 100 mg, Panel K: high fat breakfast, no PPI, read-out: plasma AUClast, Mean
  AUC(0-t): 1.69 µM·h
[2]; plasma, oral, 100 mg, Panel K: high fat breakfast, no PPI, read-out: plasma AUClast, Median
  AUC(0-t): 1.6 µM·h
[2]; plasma, oral, 100 mg, Panel K: high fat breakfast, no PPI, read-out: plasma Cmax, Mean
  Cmax: 235 nM
[2]; plasma, oral, 100 mg, Panel K: high fat breakfast, no PPI, read-out: plasma Cmax, Median
  Cmax: 250 nM
[2]; plasma, oral, 100 mg, Panel K: high fat breakfast, no PPI, read-out: plasma Tmax, Mean
  Tmax: 4 h
[2]; plasma, oral, 100 mg, Panel K: high fat breakfast, no PPI, read-out: plasma Tmax, Median
  Tmax: 4 h
[1]; FaSSIF (pH 6.8), read-out: Solubility
  solubility: 13 µg/mL (≈ 19.6 µM)
[1]; FeSSIF (pH 5), read-out: Solubility
  solubility: 18 µg/mL (≈ 27.1 µM)
[1]; aqueous buffer, pH 2.54, aqueous buffer, read-out: Solubility
  solubility: 35900 µg/mL (≈ 54000 µM)
[1]; aqueous buffer, pH 2.6, aqueous buffer, pH 2.60, read-out: Solubility
  solubility: 6480 µg/mL (≈ 9750 µM)
[1]; aqueous buffer, pH 3.8, aqueous buffer, pH 3.80, read-out: Solubility
  solubility: 36 µg/mL (≈ 54.2 µM)
[1]; aqueous buffer, pH 5.04, aqueous buffer, read-out: Solubility
  solubility: 1 µg/mL (≈ 1.5 µM)
[1]; aqueous buffer, pH 6.94, aqueous buffer, read-out: Solubility
  solubility: 1 µg/mL (≈ 1.5 µM)
[1]; aqueous buffer, pH 7.76, aqueous buffer, read-out: Solubility
  solubility: 1 µg/mL (≈ 1.5 µM)
[3]; 15 min
  % dissolved: 0%
[3]; 30 min
  % dissolved: 0.5%
[3]; 45 min
  % dissolved: 2.3%
[3]; 60 min
  % dissolved: 4.1%
[4]
  kinetic dissolution in gastric media: fully dissolved
